The source made the active and inactive calls. The rule behind the calls is not given here. Bridge positions count the residues as written; N and C are the ends. Square brackets hold non-standard residues; d marks the D form. Triazole bridges read from a SMILES are 1,4-linked. Peptide text beside a SMILES is read from it. Lys(N3) = [N-]=[N+]=NCCCC[C@H](N)C(=O)O; Pra = C#CC[C@H](N)C(=O)O; Ahx = NCCCCCC(=O)O

The subject of data set [1] is EA.hy 926. Kind of data set: Cytotoxicity against human EA.hy 926 cells at 12.5 to 100 uM incubated for 30 mins with compound in HOS solution by LDH assay. The following applies: ea.hy 926, 0.5 h, dose 12.5-100 µM. Format: toxicity, cell-based.
Data set [2] is described as follows: Stability in human plasma assessed as intact parent compound level measured after 24 hrs by LC-MS analysis. Format: ADME, cell-free. The following applies: read-out: Stability.
The target of data set [3] is Pannexin-1 (Homo sapiens) (UniProt Q96RD7). Kind of data set: Inhibition of PANX1 in human EA.hy 926 cells assessed as reduction in HOS-induced ATP release at 12.5 uM preincubated for 10 mins followed by HOS solution addition and measured after 30 mins by bioluminescence analysis relative to control. The class given is cell-based. Particulars: time 40.0 min.
Pannexin-1 (Homo sapiens), sequence (Q96RD7 whole entry): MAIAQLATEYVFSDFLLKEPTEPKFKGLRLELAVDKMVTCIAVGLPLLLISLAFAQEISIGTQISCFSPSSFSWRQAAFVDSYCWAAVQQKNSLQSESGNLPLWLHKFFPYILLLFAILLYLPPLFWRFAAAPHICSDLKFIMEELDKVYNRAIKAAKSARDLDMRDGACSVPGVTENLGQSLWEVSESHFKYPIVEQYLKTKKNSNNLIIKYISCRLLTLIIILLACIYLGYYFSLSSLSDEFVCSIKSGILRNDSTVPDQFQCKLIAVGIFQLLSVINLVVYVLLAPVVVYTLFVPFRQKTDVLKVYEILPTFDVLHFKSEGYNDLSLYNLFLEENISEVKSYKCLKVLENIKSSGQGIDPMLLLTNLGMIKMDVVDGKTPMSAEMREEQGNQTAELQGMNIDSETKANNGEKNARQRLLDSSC
Data set [4] relates to EA.hy 926. The data set can be described thus: Antiinflammatory activity in TNF-alpha stimulated human EA.hy926 cells cocultured with human THP-1 cells assessed as inhibition of monocyte adhesion at 12.5 uM incubated for 15 mins followed by adhesion for 2 hrs. The class given is functional, cell-based. Particulars: time 135.0 min.
Data set [5] deals with Pannexin-1 (Mus musculus) (UniProt Q9JIP4). The data set can be described thus: Inhibition of PANX1 in mouse B16-BL6 cells assessed as reduction in HOS-induced ATP release at 100 uM preincubated for 10 mins followed by HOS solution addition and measured after 30 mins by bioluminescence analysis relative to control. Format: cell-based. Particulars: time 40.0 min.
Pannexin-1 (Mus musculus), sequence (Q9JIP4 whole entry): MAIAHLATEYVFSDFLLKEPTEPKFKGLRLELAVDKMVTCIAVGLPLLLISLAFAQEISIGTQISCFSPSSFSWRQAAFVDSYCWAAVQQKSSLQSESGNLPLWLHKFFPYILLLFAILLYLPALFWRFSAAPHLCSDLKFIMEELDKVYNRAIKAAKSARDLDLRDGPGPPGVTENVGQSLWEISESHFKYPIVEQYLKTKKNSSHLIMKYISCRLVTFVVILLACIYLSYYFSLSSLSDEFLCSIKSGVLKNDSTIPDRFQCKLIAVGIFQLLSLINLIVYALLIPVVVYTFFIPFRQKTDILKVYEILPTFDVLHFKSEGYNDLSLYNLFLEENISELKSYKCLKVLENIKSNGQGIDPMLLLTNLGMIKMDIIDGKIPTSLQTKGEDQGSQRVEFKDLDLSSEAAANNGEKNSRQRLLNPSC
For data set [6] the target is unchanged. The data set can be described thus: Inhibition of PANX1 in mouse B16-BL6 cells assessed as reduction in HOS-induced ATP release at 12.5 uM preincubated for 10 mins followed by HOS solution addition and measured after 30 mins by bioluminescence analysis. The class given is cell-based. The following applies: time 40.0 min.
The subject of data set [7] is B16-BL6. The data set can be described thus: Cytotoxicity against mouse B16-BL6 cells at 12.5 to 100 uM incubated for 30 mins with compound in HOS solution by LDH assay. Format: toxicity, cell-based. Particulars: b16-bl6, 0.5 h, dose 12.5-100 µM.
The nature of data set [8]: Stability in human plasma assessed as half life at 1.2 mM incubated for 30 mins by LC-MS analysis. Format: ADME, cell-free.
Data set [9] addresses Pannexin-1 (Mus musculus) (UniProt Q9JIP4). Kind of data set: Inhibition of PANX1 in mouse B16-BL6 cells assessed as reduction in HOS-induced ATP release preincubated for 10 mins followed by HOS solution addition and measured after 30 mins by bioluminescence analysis. The class given is cell-based. Particulars: dose 6.25-400 µM, time 40.0 min.
For data set [10] the target is unchanged. The data set can be described thus: Inhibition of PANX1 in mouse B16-BL6 cells assessed as reduction in HOS-induced Yo-Pro-1 uptake by measuring reduction in green fluorescence at 100 uM preincubated for 10 mins followed by HOS solution addition and measured after 30 mins by fluorescence based analysis relative to control. Format: cell-based. Particulars: time 40.0 min.

Data set [11] shares this target. Kind of data set: Inhibition of PANX1 in mouse B16-BL6 cells assessed as reduction in HOS-induced Yo-Pro-1 uptake by measuring reduction in green fluorescence at 12.5 uM preincubated for 10 mins followed by HOS solution addition and measured after 30 mins by fluorescence based analysis. The class given is cell-based. The following applies: time 40.0 min.
For data set [12], the system named is B16-BL6. The data set can be described thus: Cytotoxicity against mouse B16-BL6 cells at 6.25 to 100 uM incubated for 30 mins with compound in HOS solution by LDH assay. The class given is toxicity, cell-based. Particulars: b16-bl6, 0.5 h, dose 6.25-100 µM.
Data set [13] deals with Pannexin-1 (Rattus norvegicus) (UniProt P60570). Kind of data set: Inhibition of PANX1 in rat H9C2 cells assessed as reduction in HOS-induced ATP release at 12.5 to 100 uM preincubated for 10 mins followed by HOS solution addition and measured after 30 mins by bioluminescence analysis. Format: cell-based. Particulars: dose 12.5-100 µM, time 40.0 min.
Pannexin-1 (Rattus norvegicus), sequence (P60570 whole entry): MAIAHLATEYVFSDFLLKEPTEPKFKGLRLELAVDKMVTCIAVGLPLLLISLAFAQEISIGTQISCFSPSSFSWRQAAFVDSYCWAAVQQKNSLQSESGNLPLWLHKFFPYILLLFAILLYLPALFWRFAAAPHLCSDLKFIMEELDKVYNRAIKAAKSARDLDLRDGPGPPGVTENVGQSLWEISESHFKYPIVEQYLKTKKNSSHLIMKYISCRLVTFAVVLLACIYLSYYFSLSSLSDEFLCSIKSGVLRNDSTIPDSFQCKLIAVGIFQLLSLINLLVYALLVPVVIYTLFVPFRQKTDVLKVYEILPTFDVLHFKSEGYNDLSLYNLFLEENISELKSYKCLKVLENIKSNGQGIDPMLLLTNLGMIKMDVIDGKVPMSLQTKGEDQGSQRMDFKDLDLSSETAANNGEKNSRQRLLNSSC
Data set [14] addresses Pannexin-1 (Homo sapiens) (UniProt Q96RD7). Kind of data set: Inhibition of PANX1 in human EA.hy 926 cells assessed as reduction in HOS-induced ATP release at 100 uM preincubated for 10 mins followed by HOS solution addition and measured after 30 mins by bioluminescence analysis. The following applies: time 40.0 min. The class given is cell-based.
In data set [15] the test system is EA.hy 926. Kind of data set: Antiinflammatory activity in TNF-alpha stimulated human EA.hy926 cells cocultured with human THP-1 cells assessed as inhibition of monocyte adhesion at 100 uM incubated for 15 mins followed by adhesion for 2 hrs relative to control. Particulars: EA.hy 926, 2.25 h, time 135 min. The class given is functional.

As usually defined, the inhibition is the share of the control response that was lost under treatment. As for `CC(C)[C@@H]1NC(=O)[C@H](Cc2ccccc2)NC(=O)[C@@H](NC(=O)[C@@H]2CCCCn3cc(nn3)C[C@H](NC(=O)CCCCCNC(=O)[C@@H](N)CCCCN)C(=O)N[C@@H](Cc3c[nH]c4ccccc34)C(=O)N[C@@H](CCCNC(=N)N)C(=O)N[C@@H](CCC(N)=O)C(=O)N2)Cc2cn(nn2)CCCC[C@@H](C(=O)N[C@@H](Cc2ccc(O)cc2)C(N)=O)NC(=O)[C@H](CC(=O)O)NC1=O` (H-K[Ahx][Pra]WRQ[Lys(N3)][Pra]FVD[Lys(N3)]Y-NH2; triazole 3-7, 8-12), the Activity result in the data set with EA.hy 926 [1] was “Non-Toxic”. The remaining at 24 h in [2] was determined as 20%. Further, in [3], the inhibition was found to be 25%. Also, in the data set with EA.hy 926 [4], the inhibition result was “Active”.
As for `CC(=O)N[C@H]1Cc2cn(nn2)CCCC[C@@H](C(=O)N[C@H]2Cc3cn(nn3)CCCC[C@@H](C(=O)N[C@@H](Cc3ccc(O)cc3)C(N)=O)NC(=O)[C@H](CC(=O)O)NC(=O)[C@H](C(C)C)NC(=O)[C@H](Cc3ccccc3)NC2=O)NC(=O)[C@H](CCC(N)=O)NC(=O)[C@H](CCCNC(=N)N)NC(=O)[C@H](Cc2c[nH]c3ccccc23)NC1=O` (Ac-[Pra]WRQ[Lys(N3)][Pra]FVD[Lys(N3)]Y-NH2; triazole 1-5, 6-10), the inhibition in [5] amounted to 48%. Moreover, the inhibition result in data set [6] was “Active”. In addition, the Activity entry in the data set with B16-BL6 [7] is “Non-Toxic”.
As usually defined, the half-life is how long it takes for the measured level to halve. Consider `CC(C)[C@H](NC(=O)[C@H](Cc1ccccc1)NC(=O)[C@H](C)NC(=O)[C@H](C)NC(=O)[C@H](CCC(N)=O)NC(=O)[C@H](CCCNC(=N)N)NC(=O)[C@@H](N)Cc1c[nH]c2ccccc12)C(=O)N[C@@H](CC(=O)O)C(=O)N[C@@H](CO)C(=O)N[C@@H](Cc1ccc(O)cc1)C(=O)O` (H-WRQAAFVDSY-OH), for which the Activity result in the data set with EA.hy 926 [1] and with B16-BL6 [12] was “Non-Toxic” in each case. For the same compound, the half-life at 1200 µM in data set [8] worked out at 2.27 min. The inhibition result in data set [9] was “Dose-Dependent Effect”; in data set [10] it was 14%; in data set [3], 35%. Moreover, the inhibition entry in data set [11] and in data set [13] was “inactive” each time. In data set [14], the inhibition result was “Active”. In addition, the inhibition at 100 µM in the data set with EA.hy 926 [15] was found to be 17%.

For the origin of these results see ChEMBL document CHEMBL5365478, “Structure-Based Design and Synthesis of Stapled 10Panx1 Analogues for Use in Cardiovascular Inflammatory Diseases” (J Med Chem, 2023).
